In patent EP0511845B1, “Pesticidal 1-aryl-5-(substituted alkylideneimino)-pyrazoles” (AVENTIS CROPSCIENCE S.A., priority 1991, dated 1992):

Key:
Type in all cases: in vivo
[1] = system: Spodoptera eridania; test: Southern armyworm on sorghum - systemic evaluation (soil drench); settings: systemic via root uptake, 20 ppm soil concentration dose (and subsequent dilutions), six days
Experimental: Cotton aphid and southern armyworm (on cotton) and greenbug and southern armyworm (on sorghum) - systemic evaluation: A stock solution or suspension was prepared to deliver 5 ml of a 20 ppm soil concentration dose (and subsequent dilutions) as a drench to 6 cm pots containing cotton and sorghum plants. The cotton plants were previously infested with cotton aphids about two days before treatment and greenbug one day before treatment. After holding the plants about three days, the plants were rated for aphid activity. Again at six days, the plants were rated for aphid activity and the cotton aphids and greenbugs were counted and mortality was assessed. Portions of the cotton and sorghum foliage were excised, placed in separate plastic containers, and infested with second instar larvae of southern armyworms. The potted plants were dipped in sulfotepp to kill the remaining aphids and returned to the greenhouse for regrowth. Thirteen days after treatment the remaining foliage was excised and fed to southern armyworm. Mortality was assessed six days after infestation.

[2] = system: Spodoptera eridania; test: Southern armyworm on oats - seed treatment evaluation; settings: 1.0 wt. % on oat seeds
Experimental: Cotton aphid and southern armyworm (on cotton and oats) - seed treatment evaluation: Technical material was applied to the seed of oats and cotton by placing the compound and the seed in an appropriate sized jar and rolling the jar on a ball mill. Assay of the material applied to the seed was by weight. Seed was then planted. When germinated and emerged, the plants were infested at the appropriate intervals with host insects. Mortality was assessed on those insects.

[3] = system: Meloidogyne incognita; test: Southern root-knot nematode test (gall rating on tomato); settings: effective dose to provide a 3 gall rating (light galling)
Experimental: For southern root-knot nematod and systemic tests for southern armyworm, cotton aphid, tobacco budworm and greenbug, a stock solution or suspension was prepared by adding 15 mg of the test compound to 250 mg of dimethylformamide, 1250 mg of acetone and 3 mg of the emulsifier blend referenced above. Water was then added to provide a test compound concentration of 150 ppm. When necessary, sonication was provided to insure complete dispersion.
Southern root-knot nematode: Infected roots of tomato plants, containing egg masses of southern root-knot nematode, were removed from a stock culture and cleaned of soil by shaking and washing with tap water. The nematode eggs were separated from the root tissue and rinsed with water. Samples of the egg suspension were placed on a fine screen over a receiving bowl, in which the water level was adjusted to be in contact with the screen. From the bowl, juveniles were collected on a fine screen. […] At the termination of the test, roots of the tomato seedling were removed from the cone and evaluated for galling on a rating scale relative to the untreated control as follows: • 1- severe galling, equal t untreated control • 3- light galling • 4- very light galling • 5- no galling, ie, complete control

[4] = system: Spodoptera eridania; test: Southern armyworm on tomato - systemic evaluation; settings: systemic via root uptake; 6.6 ppm soil concentration; foliage excised 21 days after treatment, larvae examined after about 5 days
Experimental: For southern root-knot nematod and systemic tests for southern armyworm, cotton aphid, tobacco budworm and greenbug, a stock solution or suspension was prepared by adding 15 mg of the test compound to 250 mg of dimethylformamide, 1250 mg of acetone and 3 mg of the emulsifier blend referenced above. Water was then added to provide a test compound concentration of 150 ppm. When necessary, sonication was provided to insure complete dispersion. Southern armyworm on tomato - systemic evaluation: This test was conducted in conjunction with the southern root-knot nematode evaluation (discussed below). The tomato plants, grown in the soil (at an initial compound test screening rate of 6.6 ppm soil concentration or about 150 ppm solution concentration) for nematode evaluation, were then utilized for evaluation of a compound's uptake via roots and subsequent systemic transport to the tomato foliage. At the termination of the nematode test, 21 days after treatment, the tomato foliage was excised, placed into a plastic container, and infested with second instar larvae of southern armyworm. After about 5 days, the larvae were examined for percent mortality.

[5] = system: Tetranychus urticae; test: Twospotted spider mite test (foliar, 100 ppm); settings: foliar bait tests
Experimental: For mite, aphid, southern armyworm, Mexican bean beetle, and tobacco budworm tests, a solution or suspension was prepared by adding 10 mg of the test compound to a solution of 160 mg of dimethylformamide, 838 mg of acetone, 2 mg of a 3:1 ratio of Triton X-172 : Triton X-152 (respectively, mainly anionic and nonionic low foam emulsifiers which are each anhydro us blends of alkylaryl polyether alcohols with organic sulfonates), and 98.99 g of water. The result was a concentration of 100 ppm of the test compound.
Twospotted spider mite: Leaves infested with adult and nymphal stages of the two-spotted spider mite, obtained from a stock culture were placed on the primary leaves of two bean plants growing in a 6 cm. peat pot. A sufficient number of mites (150-200) for testing were transferred to the fresh plants within a period of twenty-four hours. The potted plants (one pot per compound) were placed on a revolving turntable and sprayed, sufficient to wet the plants to runoff, with 100 ml of the 100 ppm test compound formulation by use of a DeVilbiss spray gun set at 40 psig. air pressure. As an untreated control, 100 ml of the water-acetone-DMF-emulsifier solution, containing no test compound, were also sprayed on infested plants. A treated control with a commercial technical compound, either dicofol or hexythiazox, formulated in the same manner, was tested as a standard. […]

[6] = system: Aphis gossypii; test: Cotton aphid on cotton - systemic evaluation (soil drench); settings: systemic via root uptake, soil drench at soil concentrations of the protocols (10.0 or 20 ppm)
Experimental: (§1) For southern root-knot nematod and systemic tests for southern armyworm, cotton aphid, tobacco budworm and greenbug, a stock solution or suspension was prepared by adding 15 mg of the test compound to 250 mg of dimethylformamide, 1250 mg of acetone and 3 mg of the emulsifier blend referenced above. Water was then added to provide a test compound concentration of 150 ppm. When necessary, sonication was provided to insure complete dispersion. Cotton aphid and tobacco budworm (on cotton) and greenbug and tobacco budworm (on sorghum) - systemic evaluation: A 7.0 ml aliquot of the 150 ppm nematode test solution was applied to deliver the equivalent of 10.0 ppm soil concentration dose as a drench to 6 cm pots containing cotton and sorghum plants. The cotton plants were previously infested with cotton aphids about two days before treatment and greenbug one day before treatment. After holding the plants about three days, the plants were rated for aphid activity. Again at six days, the plants were rated for aphid activity and the cotton aphids and greenbugs were counted and mortality was assessed. Portions of the cotton and sorghum foliage were excised, placed in separate plastic containers, and infested with second instar larvae of tobacco budworm. The potted plants were dipped in sulfotepp to kill the remaining aphids and returned to the greenhouse for regrowth. Thirteen days after treatment, the remaining foliage was excised and fed to tobacco budworms. Mortality was assessed six days after infestation. Cotton aphid and southern armyworm (on cotton) and greenbug and southern armyworm (on sorghum) - systemic evaluation: A stock solution or suspension was prepared to deliver 5 ml of a 20 ppm soil concentration dose (and subsequent dilutions) as a drench to 6 cm pots containing cotton and sorghum plants. The cotton plants were previously infested with cotton aphids about two days before treatment and greenbug one day before treatment. After holding the plants about three days, the plants were rated for aphid activity. Again at six days, the plants were rated for aphid activity and the cotton aphids and greenbugs were counted and mortality was assessed. Portions of the cotton and sorghum foliage were excised, placed in separate plastic containers, and infested with second instar larvae of southern armyworms. The potted plants were dipped in sulfotepp to kill the remaining aphids and returned to the greenhouse for regrowth. Thirteen days after treatment the remaining foliage was excised and fed to southern armyworm. Mortality was assessed six days after infestation.

[7] = system: Heliothis virescens; test: Tobacco budworm on sorghum - systemic evaluation (soil drench); settings: systemic via root uptake, 10.0 ppm soil concentration
Experimental: For southern root-knot nematod and systemic tests for southern armyworm, cotton aphid, tobacco budworm and greenbug, a stock solution or suspension was prepared by adding 15 mg of the test compound to 250 mg of dimethylformamide, 1250 mg of acetone and 3 mg of the emulsifier blend referenced above. Water was then added to provide a test compound concentration of 150 ppm. When necessary, sonication was provided to insure complete dispersion. Cotton aphid and tobacco budworm (on cotton) and greenbug and tobacco budworm (on sorghum) - systemic evaluation: A 7.0 ml aliquot of the 150 ppm nematode test solution was applied to deliver the equivalent of 10.0 ppm soil concentration dose as a drench to 6 cm pots containing cotton and sorghum plants. The cotton plants were previously infested with cotton aphids about two days before treatment and greenbug one day before treatment. After holding the plants about three days, the plants were rated for aphid activity. Again at six days, the plants were rated for aphid activity and the cotton aphids and greenbugs were counted and mortality was assessed. Portions of the cotton and sorghum foliage were excised, placed in separate plastic containers, and infested with second instar larvae of tobacco budworm. The potted plants were dipped in sulfotepp to kill the remaining aphids and returned to the greenhouse for regrowth. Thirteen days after treatment, the remaining foliage was excised and fed to tobacco budworms. Mortality was assessed six days after infestation.

[8] = system: Schizaphis graminum; test: Greenbug on sorghum - systemic evaluation (soil drench); settings: systemic via root uptake, soil drench at soil concentrations of the protocols (10.0 or 20 ppm)
Experimental: as §1

[9] = system: Heliothis virescens; test: Tobacco budworm - contact evaluation (topical application); settings: topical or contact tests; application dose of 63 µg/g body weight
Experimental: For tobacco budworm contact tests, a stock solution was prepared by dissolving the compound in acetone and then further diluted to provide the required serial dilution concentrations.
Tobacco budworm - contact evaluation: The following topical application method provides an assessment of contact toxicity of a compound to tobacco budworm larvae The test compound solution at sequential two-fold dilution concentrations from 10 down to 0.16 µg/µl was applied by a microinjector in repli cated 1 µl portions to the dorsum of approximately 20 mg tobacco budworm larvae. This is equivalent to applied doses of 500 down to 8 µg/g body weight. An acetone treated control, without any test compounds, as also applied. A treated control with a commercial technical compound, cypermethrin or thiodicarb, also in acetone was used as a standard. The treated larvae were placed, individually, in separate plastic petri dishes containing an untreated cotton leaf and a moist dental wick. The treated larvae were maintained at about 27°C and 50% relative humidity. The percent mortality was rated 1 and 4 days after treatment.

SMILES: COc1cc(C=Nc2c(SC(F)(F)F)c(C#N)nn2-c2c(Cl)cc(C(F)(F)F)cc2Cl)ccc1O [CMPD NO. 2, 1-(2,6-dichloro-4-trifluoromethylphenyl)-3-cyano-4-trifluoromethylsulfenyl-5-[(4-hydroxy-3-methoxyphenyl)methylideneimino]pyrazole]
- control of southern armyworm after six days on sorghum [1]: 30-100%
- control of southern armyworm after six days [2]: 100%

SMILES: N#Cc1nn(-c2c(Cl)cc(C(F)(F)F)cc2Cl)c(N=Cc2cccs2)c1SC(F)(F)F [compound 7]
- ED3 value on SRKN larvae [3]: about 21 kg/ha

SMILES: COc1cc(C=Nc2c([S+]([O-])C(F)(F)F)c(C#N)nn2-c2c(Cl)cc(C(F)(F)F)cc2Cl)ccc1O (stereo not drawn) [compound 10, 1-(2,6-dichloro-4-trifluoromethylphenyl)-3-cyano-4-trifluoromethylsulfinyl-5-[(4-hydroxy-3-methoxyphenyl)methylideneimino]pyrazole]
- ED3 value on SRKN larvae [3]: about 21 kg/ha
- control of southern armyworm on tomato [4]: 50-100%
- control of southern armyworm after six days on sorghum [1]: 30-100%

SMILES: CCOc1cc(C=Nc2c([S+]([O-])C(F)(F)F)c(C#N)nn2-c2c(Cl)cc(C(F)(F)F)cc2Cl)ccc1O (stereo not drawn) [compound 47]
- control of mites [5]: 30-70%

SMILES: N#Cc1nn(-c2c(Cl)cc(C(F)(F)F)cc2Cl)c(N=Cc2ccncc2)c1SC(F)(F)F [compound 16, 1-(2,6-dichloro-4-trifluoromethylphenyl)-3-cyano-4-trifluoromethylsulfenyl-5-[(4-pyridyl)-methylideneimino]pyrazole]
- control of cotton aphid after six days on cotton [6]: 30-100%
- control of tobacco budworm after six days on sorghum [7]: 100%
- control of greenbug after six days on sorghum [8]: 30-100%

SMILES: Cc1cc(C=Nc2c(SC(F)(F)F)c(C#N)nn2-c2c(Cl)cc(C(F)(F)F)cc2Cl)ccc1O [compound 19]
- control of cotton aphid after six days on cotton [6]: 30-100%
- control of tobacco budworm after six days on sorghum [7]: 100%
- control of greenbug after six days on sorghum [8]: 30-100%

SMILES: COc1cc(C=Nc2c(SC(F)(F)F)c(C#N)nn2-c2c(Cl)cc(C(F)(F)F)cc2Cl)cc(O)c1O [compound 40]
- control of mites [5]: 30-70%
- control of tobacco budworm (TBW) [9]: 50-100%
